In PubChem BioAssay AID2060612 (Molecular Pharmacology Branch, DTP, NCI, 2025):

Tested on: 565232-114-T-J1-PDC complex spheroid viability
Test: Anticancer human tumor 565232-114-T-J1-PDC patient-derived bladder carcinoma cell line growth inhibition [CLK]
Details: for viability, T/C: stronger effect = lower value
Description: A high-throughput screen of multi-cell type tumor spheroids was designed to identify active combinations of […] and targeted small molecules. Complex spheroids include a stromal component modeled by human endothelial cells (HUVEC) and fibroblasts modeled by human mesenchymal stem cells (MSCs). The concentration ranges selected for each drug and investigational agent were based upon clinically achievable concentrations if the clinical Cmax of the agent was known.
Compounds. The drugs and investigational agents: cirtuvivint (SM08502; NSC835563), CC-671 (NSC850746), vemurafenib (NSC761431), tapotoclax (NSC804041), sotorasib (NSC818433), adagrasib (NSC831453), MRTX-1133 (NSC836407), BAY2416964 (NSC825713), copanlisib (NSC816437), inavolisib (NSC800729), abemaciclib (NSC768073), osimertinib (NSC779217), entinostat (NSC756642), eltanexor (KPT-8602, NSC794443), venetoclax (NSC766270), ceralasertib (NSC777638), bortezomib (NSC756655), olaparib (NSC753686), talazoparib (NSC767125), alisertib (NSC759677), peposertib (NSC802822), gemcitabine (NSC613327), 5-fluorouracil (NSC19893), SN-38 (NSC673596), oxaliplatin (NSC266046), paclitaxel (NSC125973), and doxorubicin (NSC123127), were obtained from the National Cancer Institute (NCI) Developmental Therapeutics Program Chemical Repository. The FDA-approved anticancer drug set is available from the Developmental Therapeutics Program at https://dtp.cancer.gov/organization/dscb/obtaining/available plates.htm. […] The stock solutions were prepared in dimethyl sulfoxide (DMSO, Sigma-Aldrich, St. Louis, MO, cat. D2650), except for the platinum complexes which were prepared in saline (Quality Biological, Gaithersburg, MD, cat. 114-055-101), at 800-fold the tested concentration and stored at -70 degrees C prior to their use. All drugs and investigational agents were tested over a range starting from a high concentration at or near the clinical Cmax and decreasing in half-log increments. If the clinical Cmax for an agent had not been determined, the highest concentration tested was 10 microM.
Cell Culture. All cells were maintained in an incubator at 37 degrees C and 5% CO2 with 95% humidity. The PDC lines were cultured according to standard operating procedures established by the NCI PDMR. Briefly, all PDCs were thawed and cultured in Matrigel-coated flasks prepared with a working solution of 1X Ham's F-12 nutrient mix, without supplementation (Invitrogen, Waltham, MA, cat. 11765054), 100 U/mL penicillin-streptomycin (Invitrogen, cat. 15140122), and 2.5% Matrigel (Corning Inc., Corning, NY, cat. 354248) for the first three passages. The 947758-054-R-J2-PDC line was cultured in 6B/Colon 1A media, which includes advanced DMEM/F-12 (Thermo Fisher Scientific, cat. 12634028), 10 mM HEPES (Thermo Fisher Scientific, cat. 15630080), 1X GlutaMAX supplement (Thermo Fisher Scientific, cat. 35050061), 0.1 mg/mL primocin (InvivoGen, cat. ant-pm-2), 10% defined fetal bovine serum, heat inactivated (HyClone Laboratories Inc., cat. SH30070.03HI), 1.25 mM N-Acetyl-L-cysteine (Sigma-Aldrich, cat. A9165), 10 mM nicotinamide (Sigma-Aldrich, cat. N0636), 1X B-27 supplement (Thermo Fisher Scientific, cat. 17504044), 1X N-2 supplement (Thermo Fisher Scientific, cat. 17502048), and 10 microM Y-27632 dihydrochloride (Tocris Bioscience, cat. 1254). The 876862-298-R-J1-PDC was cultured in 6E media, which includes all 6B/Colon 1A media components plus 50% L-WRN conditioned media (ATCC, cat. CRL-3276), 50 ng/mL recombinant human EGF recombinant protein (hEGF; Thermo Fisher Scientific, cat. PHG0311), 10 ng/mL recombinant human fibroblast growth factor 10 (hGFG-10; PeproTech, cat. 100-26), 1 ng/mL recombinant human fibroblast growth factor 2 (hFGF-2; PeproTech, cat. 100-18B), and 1 µM prostaglandin E2 (PGE2; Tocris, cat. 2296). The 227483-062-R1-J1-PDC line was cultured in Panc media, containing all 6E components except hFGF-2, with the addition of 500 nM SB-431542 (Selleckchem, cat. S1067) and 10 nM gastrin (Tocris, cat. 3006). […]
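Further: spheroids exposed to compounds for 7 days before readout.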
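Wherever viability, T/C is given: 100% = DMSO vehicle wells with luminescence normalized to vehicle control.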

CCN1CCN(Cc2ccc(Nc3ncc(F)c(-c4cc(F)c5nc(C)n(C(C)C)c5c4)n3)nc2)CC1 + CN1CCN(c2cc(C(=O)Nc3cc4cc(-c5cnn(C)c5)ccc4cn3)ccn2)CC1
IC50 (curve of first compound, second compound 0.0316 µM): > 1000 nM | IC50 (curve of first compound, second compound 0.1 µM): > 1000 nM | IC50 (curve of first compound, second compound 0.316 µM): < 3.16 nM | IC50 (curve of first compound, second compound 1 µM): < 3.16 nM | IC50 (curve of first compound, second compound 3.16 µM): < 3.16 nM | IC50 (curve of first compound, second compound 10 µM): < 3.16 nM | viability, T/C (second compound 0.0316 µM, first compound 0.00316 µM): 116% | viability, T/C (second compound 0.0316 µM, first compound 0.01 µM): 82.1% | viability, T/C (second compound 0.0316 µM, first compound 0.0316 µM): 98.7% | viability, T/C (second compound 0.0316 µM, first compound 0.1 µM): 92.8% | viability, T/C (second compound 0.0316 µM, first compound 0.316 µM): 113% | viability, T/C (second compound 0.0316 µM, first compound 1 µM): 123% | viability, T/C (second compound 0.1 µM, first compound 0.00316 µM): 88.1% | viability, T/C (second compound 0.1 µM, first compound 0.01 µM): 90.2% | viability, T/C (second compound 0.1 µM, first compound 0.0316 µM): 89% | viability, T/C (second compound 0.1 µM, first compound 0.1 µM): 103% | viability, T/C (second compound 0.1 µM, first compound 0.316 µM): 116% | viability, T/C (second compound 0.1 µM, first compound 1 µM): 113% | viability, T/C (second compound 0.316 µM, first compound 0.00316 µM): 15.5% | viability, T/C (second compound 0.316 µM, first compound 0.01 µM): 24.7% | viability, T/C (second compound 0.316 µM, first compound 0.0316 µM): 23.2% | viability, T/C (second compound 0.316 µM, first compound 0.1 µM): 29.1% | viability, T/C (second compound 0.316 µM, first compound 0.316 µM): 42.4% | viability, T/C (second compound 0.316 µM, first compound 1 µM): 61.1% | viability, T/C (second compound 1 µM, first compound 0.00316 µM): 0.26% | viability, T/C (second compound 1 µM, first compound 0.01 µM): 0.27% | viability, T/C (second compound 1 µM, first compound 0.0316 µM): 0.3% | viability, T/C (second compound 1 µM, first compound 0.1 µM): 0.29% | viability, T/C (second compound 1 µM, first compound 0.316 µM): 1.31% | viability, T/C (second compound 1 µM, first compound 1 µM): 2.37% | viability, T/C (second compound 3.16 µM, first compound 0.00316 µM): 0.2% | viability, T/C (second compound 3.16 µM, first compound 0.01 µM): 0.22% | viability, T/C (second compound 3.16 µM, first compound 0.0316 µM): 0.96% | viability, T/C (second compound 3.16 µM, first compound 0.1 µM): 0.16% | viability, T/C (second compound 3.16 µM, first compound 0.316 µM): 0.25% | viability, T/C (second compound 3.16 µM, first compound 1 µM): 0.35% | viability, T/C (second compound 10 µM, first compound 0.00316 µM): 0.18% | viability, T/C (second compound 10 µM, first compound 0.01 µM): 0.2% | viability, T/C (second compound 10 µM, first compound 0.0316 µM): 0.5% | viability, T/C (second compound 10 µM, first compound 0.1 µM): 0.16% | viability, T/C (second compound 10 µM, first compound 0.316 µM): 0.21% | viability, T/C (second compound 10 µM, first compound 1 µM): 1.34%

C=C(F)C(=O)N1CCN(c2nc(OCC3CCCN3C)nc3c2CCN(c2cccc4cccc(Cl)c24)C3)CC1CC#N (centres undefined)
viability, T/C (compound 0.0316 µM): 103% | viability, T/C (compound 0.1 µM): 103% | viability, T/C (compound 0.316 µM): 88.9% | viability, T/C (compound 1 µM): 109% | viability, T/C (compound 3.16 µM): 105% | viability, T/C (compound 10 µM): 0.24% | IC50 (curve of compound): 5680 nM
